Experimental findings from patent publication US9359358B2, “Cyclohexyl azetidine derivatives as JAK inhibitors” (Incyte Holdings Corporation, priority 2011, dated 2016) are described below.

One assay concerns the target T1, human JAK2 (Homo sapiens, UniProt O60674).
T1 construct: JAK2 (a.a. 828-1132); His tag (N); made in house; host or cells: insect cells (baculovirus)
The assay is described as follows: In Vitro JAK Kinase Assay (HTRF, phosphorylation of a biotinylated peptide), JAK2. It is filed as biochemical. The following applies: assay of Example A. The procedure:
(§1) The catalytic activity of JAK1, JAK2 or JAK3 was assayed by measuring the phosphorylation of a biotinylated peptide. The phosphorylated peptide was detected by homogenous time resolved fluorescence (HTRF). […] Reactions were carried out at room temperature for 1 hour and then stopped with 20 μL 45 mM EDTA, 300 nM SA-APC, 6 nM Eu-Py20 in assay buffer (Perkin Elmer, Boston, Mass.). Binding to the Europium labeled antibody took place for 40 minutes and HTRF signal was measured on a Fusion plate reader (Perkin Elmer, Boston, Mass.).

For another assay, the target named is T2, human JAK1 (Homo sapiens, UniProt P23458).
T2 construct: human JAK1 (a.a. 837-1142); His tag (N); made in house; host or cells: insect cells (baculovirus)
The assay is described as follows: In Vitro JAK Kinase Assay (HTRF, phosphorylation of a biotinylated peptide), JAK1. Conditions: catalytic domain a.a. 837-1142, assay of Example A. It is filed as biochemical. On the procedure: as §1
For orientation: TR-FRET usually uses a lanthanide donor and a delayed reading to cut background.

Counter-ions that a name gives are not always drawn.

T2 sequence (P23458 849-1154): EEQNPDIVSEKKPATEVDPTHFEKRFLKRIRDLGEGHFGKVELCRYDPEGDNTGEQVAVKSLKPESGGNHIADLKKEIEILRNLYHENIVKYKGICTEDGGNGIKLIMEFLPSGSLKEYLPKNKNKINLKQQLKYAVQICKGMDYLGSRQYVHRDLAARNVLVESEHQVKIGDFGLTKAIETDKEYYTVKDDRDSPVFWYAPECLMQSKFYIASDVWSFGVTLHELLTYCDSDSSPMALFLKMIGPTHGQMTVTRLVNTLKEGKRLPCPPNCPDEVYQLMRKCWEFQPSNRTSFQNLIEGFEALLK
T1 sequence (O60674 828-1132): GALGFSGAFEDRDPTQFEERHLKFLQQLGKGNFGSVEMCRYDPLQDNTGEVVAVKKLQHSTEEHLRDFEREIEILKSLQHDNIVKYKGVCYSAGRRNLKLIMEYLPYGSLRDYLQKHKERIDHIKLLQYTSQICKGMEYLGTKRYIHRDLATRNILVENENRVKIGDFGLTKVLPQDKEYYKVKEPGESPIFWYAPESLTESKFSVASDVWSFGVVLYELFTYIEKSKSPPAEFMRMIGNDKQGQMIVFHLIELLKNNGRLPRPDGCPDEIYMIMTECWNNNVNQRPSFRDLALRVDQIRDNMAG

As usually defined, the IC50 is the concentration at which inhibition is half-maximal. A low value points to inhibition by little substance. Regarding `N#CCC1(n2cc(-c3ncnc4[nH]ccc34)cn2)CN([C@H]2CC[C@@H](Oc3cc(C#N)nc(C(F)(F)F)n3)CC2)C1` [Example 54, 6-[(cis-4-{3-(cyanomethyl)-3-[4-(7H-pyrrolo[2,3-d]pyrimidin-4-yl)-1H-pyrazol-1-yl]azetidin-1-yl}cyclohexyl)oxy]-2-(trifluoromethyl)pyrimidine-4-carbonitrile bis(trifluoroacetate)], the “JAK2/JAK1 IC50 ratio” value at human JAK2 (Table 4) was “≧10”. The same molecule had an IC50 against human JAK1 (Table 4) of less than 10 nM.

Regarding `N#CCC1(n2cc(-c3ncnc4[nH]ccc34)cn2)CN([C@H]2CC[C@@H](Oc3cc(CN4CC[C@H](O)C4)nc(C(F)(F)F)n3)CC2)C1` [Example 26, {1-(cis-4-{[6-{[(3S)-3-hydroxypyrrolidin-1-yl]methyl}-2-(trifluoromethyl)pyrimidin-4-yl]oxy}cyclohexyl)-3-[4-(7H-pyrrolo[2,3-d]pyrimidin-4-yl)-1H-pyrazol-1-yl]azetidin-3-yl}acetonitrile tris(trifluoroacetate) (salt)], the “JAK2/JAK1 IC50 ratio” value at human JAK2 (Table 4) is reported as “≧10”. Further, at human JAK1 (Table 4), the IC50 is less than 10 nM.

In the case of `CN(C)C(=O)c1cc(O[C@H]2CC[C@@H](N3CC(CC#N)(n4cc(-c5ncnc6[nH]ccc56)cn4)C3)CC2)nc(C(F)(F)F)c1` [Example 81, 2-[(cis-4-{3-(cyanomethyl)-3-[4-(7H-pyrrolo[2,3-d]pyrimidin-4-yl)-1H-pyrazol-1-yl]azetidin-1-yl}cyclohexyl)oxy]-N,N-dimethyl-6-(trifluoromethyl)isonicotinamide bis(trifluoroacetate)], the “JAK2/JAK1 IC50 ratio” value at human JAK2 (Table 5) is recorded as “≧10”. At human JAK1 (Table 5), this molecule came in with an IC50 of less than 10 nM.

With `N#CCC1(n2cc(-c3ncnc4[nH]ccc34)cn2)CN([C@H]2CC[C@@H](Oc3cc(CN4CCC(O)CC4)cc(C(F)(F)F)n3)CC2)C1` [Example 97, {1-(cis-4-{[4-[(4-hydroxypiperidin-1-yl)methyl]-6-(trifluoromethyl)pyridin-2-yl]oxy}cyclohexyl)-3-[4-(7H-pyrrolo[2,3-d]pyrimidin-4-yl)-1H-pyrazol-1-yl]azetidin-3-yl}acetonitrile tris(trifluoroacetate)], the IC50 at human JAK1 (Table 5) is less than 10 nM.

In turn, `CC(C)CNCc1cc(O[C@H]2CC[C@@H](N3CC(CC#N)(n4cc(-c5ncnc6[nH]ccc56)cn4)C3)CC2)nc(C(F)(F)F)n1` [Example 35, {1-(cis-4-{[6-[(isobutylamino)methyl]-2-(trifluoromethyl)pyrimidin-4-yl]oxy}cyclohexyl)-3-[4-(7H-pyrrolo[2,3-d]pyrimidin-4-yl)-1H-pyrazol-1-yl]azetidin-3-yl}acetonitrile tris(trifluoroacetate)] returned a 50% inhibitory concentration (IC50) against human JAK1 (Table 4) of less than 10 nM.

On to `N#CCC1(n2cc(-c3ncnc4[nH]ccc34)cn2)CN([C@H]2CC[C@@H](Oc3cc(CN4CCCCC4)nc(C(F)(F)F)n3)CC2)C1` [Example 30, {1-(cis-4-{[6-(piperidin-1-ylmethyl)-2-(trifluoromethyl)pyrimidin-4-yl]oxy}cyclohexyl)-3-[4-(7H-pyrrolo[2,3-d]pyrimidin-4-yl)-1H-pyrazol-1-yl]azetidin-3-yl}acetonitrile tris(trifluoroacetate)], for which the IC50 against human JAK1 (Table 4) is less than 10 nM.

As to `CC(C)(CO)NCc1cc(O[C@H]2CC[C@@H](N3CC(CC#N)(n4cc(-c5ncnc6[nH]ccc56)cn4)C3)CC2)nc(C(F)(F)F)c1` [Example 71, {1-(cis-4-{[4-{[(2-hydroxy-1,1-dimethylethyl)amino]methyl}-6-(trifluoromethyl)pyridin-2-yl]oxy}cyclohexyl)-3-[4-(7H-pyrrolo[2,3-d]pyrimidin-4-yl)-1H-pyrazol-1-yl]azetidin-3-yl}acetonitrile tris(trifluoroacetate) (salt)], on human JAK1 (Table 5), the IC50 was less than 10 nM.
